According to a compilation of properties of binary mixtures (doi:10.1007/s10953-008-9260-8):

Experiment: xn = mol fraction of the nth substance listed
Details: 101 kPa

CC[n+]1ccn(C)c1.F[B-](F)(F)F + CCCCCC[n+]1ccn(C)c1.F[B-](F)(F)F
viscosity (298.15 K, x1 = 1): 35.8 mPa·s | viscosity (301.15 K, x1 = 1): 32.15 mPa·s | viscosity (302.15 K, x1 = 1): 31.06 mPa·s | viscosity (303.15 K, x1 = 1): 30.06 mPa·s | viscosity (304.15 K, x1 = 1): 29.01 mPa·s | viscosity (305.15 K, x1 = 1): 28.13 mPa·s | viscosity (307.15 K, x1 = 1): 26.38 mPa·s

CCCC[n+]1ccn(C)c1.F[B-](F)(F)F + CCCC[n+]1ccn(C)c1.F[P-](F)(F)(F)(F)F
viscosity (298.15 K, x2 = 0): 107.2 mPa·s | viscosity (302.15 K, x2 = 0): 87.5 mPa·s | viscosity (304.15 K, x2 = 0): 79.6 mPa·s | viscosity (305.15 K, x2 = 0): 75.9 mPa·s | viscosity (307.15 K, x2 = 0): 69.1 mPa·s | viscosity (308.15 K, x2 = 0): 66.1 mPa·s

CCCCCC[n+]1ccn(C)c1.F[B-](F)(F)F + CCCC[n+]1ccn(C)c1.F[B-](F)(F)F
viscosity (298.15 K, x2 = 0): 209 mPa·s | viscosity (298.15 K, x2 = 0.054): 200.2 mPa·s | viscosity (298.15 K, x2 = 0.2076): 172.4 mPa·s | viscosity (298.15 K, x2 = 0.2995): 167.3 mPa·s | viscosity (298.15 K, x2 = 0.3602): 165.7 mPa·s | viscosity (298.15 K, x2 = 0.4383): 158.7 mPa·s | viscosity (298.15 K, x2 = 0.5047): 149.8 mPa·s | viscosity (298.15 K, x2 = 0.555): 144 mPa·s | viscosity (298.15 K, x2 = 0.598): 142.4 mPa·s | viscosity (298.15 K, x2 = 0.809): 122.3 mPa·s | viscosity (299.15 K, x2 = 0): 197.3 mPa·s | viscosity (299.15 K, x2 = 0.054): 188.7 mPa·s | viscosity (299.15 K, x2 = 0.2076): 161.3 mPa·s | viscosity (299.15 K, x2 = 0.2995): 161.3 mPa·s | viscosity (299.15 K, x2 = 0.3602): 156.7 mPa·s | viscosity (299.15 K, x2 = 0.4383): 149 mPa·s | viscosity (299.15 K, x2 = 0.5047): 144 mPa·s | viscosity (299.15 K, x2 = 0.555): 135.9 mPa·s | viscosity (299.15 K, x2 = 0.598): 134.7 mPa·s | viscosity (299.15 K, x2 = 0.8917): 109.5 mPa·s | viscosity (301.15 K, x2 = 0): 175.8 mPa·s | viscosity (301.15 K, x2 = 0.054): 168.3 mPa·s | viscosity (301.15 K, x2 = 0.103): 164.5 mPa·s | viscosity (301.15 K, x2 = 0.2076): 145 mPa·s | viscosity (301.15 K, x2 = 0.2995): 141.6 mPa·s | viscosity (301.15 K, x2 = 0.3602): 140.4 mPa·s | viscosity (301.15 K, x2 = 0.4383): 133.4 mPa·s | viscosity (301.15 K, x2 = 0.5047): 129.1 mPa·s | viscosity (301.15 K, x2 = 0.555): 122.2 mPa·s | viscosity (301.15 K, x2 = 0.598): 121.1 mPa·s | viscosity (302.15 K, x2 = 0): 165.9 mPa·s | viscosity (302.15 K, x2 = 0.054): 160.4 mPa·s | viscosity (302.15 K, x2 = 0.103): 156.8 mPa·s | viscosity (302.15 K, x2 = 0.2076): 137.3 mPa·s | viscosity (302.15 K, x2 = 0.2995): 134.2 mPa·s | viscosity (302.15 K, x2 = 0.4383): 126.3 mPa·s | viscosity (302.15 K, x2 = 0.5047): 122.4 mPa·s | viscosity (302.15 K, x2 = 0.598): 114.9 mPa·s | viscosity (302.15 K, x2 = 0.809): 99.2 mPa·s | viscosity (303.15 K, x2 = 0): 157 mPa·s | viscosity (303.15 K, x2 = 0.054): 147.5 mPa·s | viscosity (303.15 K, x2 = 0.103): 147.1 mPa·s | viscosity (303.15 K, x2 = 0.2076): 130.2 mPa·s | viscosity (303.15 K, x2 = 0.2995): 127.2 mPa·s | viscosity (303.15 K, x2 = 0.4383): 119.7 mPa·s | viscosity (303.15 K, x2 = 0.5047): 116.1 mPa·s | viscosity (303.15 K, x2 = 0.598): 108.6 mPa·s | viscosity (304.15 K, x2 = 0): 148.6 mPa·s | viscosity (304.15 K, x2 = 0.054): 142.5 mPa·s | viscosity (304.15 K, x2 = 0.2076): 122.8 mPa·s | viscosity (304.15 K, x2 = 0.2995): 120.6 mPa·s | viscosity (304.15 K, x2 = 0.3602): 119.8 mPa·s | viscosity (304.15 K, x2 = 0.4383): 113.7 mPa·s | viscosity (304.15 K, x2 = 0.555): 104.4 mPa·s | viscosity (304.15 K, x2 = 0.598): 103.6 mPa·s | viscosity (304.15 K, x2 = 0.809): 89.9 mPa·s | viscosity (304.15 K, x2 = 0.8917): 85 mPa·s | viscosity (305.15 K, x2 = 0): 140.7 mPa·s | viscosity (305.15 K, x2 = 0.054): 135.7 mPa·s | viscosity (305.15 K, x2 = 0.103): 132 mPa·s | viscosity (305.15 K, x2 = 0.2076): 117.3 mPa·s | viscosity (305.15 K, x2 = 0.2995): 114.6 mPa·s | viscosity (305.15 K, x2 = 0.5047): 104.7 mPa·s | viscosity (305.15 K, x2 = 0.555): 99.3 mPa·s | viscosity (305.15 K, x2 = 0.8917): 81 mPa·s | viscosity (307.15 K, x2 = 0): 126.7 mPa·s | viscosity (307.15 K, x2 = 0.103): 119 mPa·s | viscosity (307.15 K, x2 = 0.2076): 106.1 mPa·s | viscosity (307.15 K, x2 = 0.3602): 102.6 mPa·s | viscosity (307.15 K, x2 = 0.4383): 97.4 mPa·s | viscosity (307.15 K, x2 = 0.5047): 94.6 mPa·s | viscosity (307.15 K, x2 = 0.555): 90 mPa·s | viscosity (307.15 K, x2 = 0.598): 89.3 mPa·s | viscosity (307.15 K, x2 = 0.809): 77.7 mPa·s | viscosity (307.15 K, x2 = 0.8917): 73.6 mPa·s | viscosity (308.15 K, x2 = 0): 120 mPa·s | viscosity (308.15 K, x2 = 0.054): 117.4 mPa·s | viscosity (308.15 K, x2 = 0.2076): 101 mPa·s | viscosity (308.15 K, x2 = 0.2995): 98.5 mPa·s | viscosity (308.15 K, x2 = 0.5047): 90 mPa·s | viscosity (308.15 K, x2 = 0.555): 85.9 mPa·s | viscosity (308.15 K, x2 = 0.598): 85.2 mPa·s | viscosity (308.15 K, x2 = 0.809): 74.5 mPa·s | viscosity (308.15 K, x2 = 0.8917): 70.3 mPa·s
